In assay [1] the test system is functional HyNaC heterotrimer. In words: Screen of functional HyNaC heterotrimers in Xenopus oocytes for activation by Hydra-RFamides. The assay is classed as cell-based, Hydra magnipapillata. As to conditions: 5 μM peptide; Xenopus oocytes. The method, then:
We tested the function of the new HyNaCs by co-expression of different HyNaC subunit combinations in Xenopus oocytes. We screened for functional subunit combinations by application of 5 μM Hydra-RFamide I, a potent agonist of HyNaC2/3/5 [4]. When we expressed an individual HyNaC subunit we could never elicit currents. […] When HyNaC2 was part of the injected cRNA pool, however, Hydra-RFamide I elicited currents. Simultaneous expression of HyNaC2 with a single other HyNaC resulted only in a functional channel when we co-expressed HyNaC2 and HyNaC3; it was already known that HyNaC2 and HyNaC3 form a low-affinity peptide-gated channel.
Dashed line represents the zero current level. Amino acid sequences of Hydra-RFamides I to V are shown at the bottom. HyNaC, Hydra Na^+ channel.
Since Hydra-RFamide II had been shown previously to activate HyNaC2/3/5 [4], we tested Hydra-RFamides II to V for channel activation.
To study the biophysical properties of the new HyNaCs, cRNA of HyNaCs was synthesized in vitro (mMessage mMachine kit, Ambion, Austin, Texas, USA) and injected into Xenopus laevis oocytes of stage V and VI. After injection, oocytes were incubated for one to two days at 19°C in oocyte Ringer’s solution 2 (OR-2), which contained (in mM): 82.5 NaCl, 2.5 KCl, 1.0 Na2HPO4, 1.0 MgCl2, 1.0 CaCl2, 5.0 HEPES, 0.5 g/l PVP, 1,000 U/l penicillin and 10 mg/l streptomycin, NaOH was used to adjust pH to 7.3. Whole cell currents were recorded from defolliculated oocytes by two-electrode voltage-clamp (TEVC) using the amplifier TurboTec 03X (npi electronic GmbH, Tamm, Germany). Standard bath solution (in mM: 140 NaCl, 10 HEPES, 1.8 CaCl2 and 1.0 MgCl2. NaOH was used to adjust pH to 7.4.) was exchanged by a pump driven system combined with the oocyte testing carousel (OTC), which was controlled by the interface OTC-20 [53]. To control the OTC-20 and to record the data to the hard drive, the software CellWorks (version 5.1.1; npi electronic GmbH, Tamm, Germany) was used. Data were sampled at 0.1 to 1 kHz and filtered at 20 Hz. HyNaCs are permeable for Ca^2+, activating an endogenous CaCC [40]. Therefore, unless otherwise indicated, oocytes were injected with 50 nl of 20 mM EGTA 30 to 180 minutes before measurements. Reversal potentials and Ca^2+ permeabilities of HyNaCs were studied as described previously.

The next assay has as its target HyNaC2/10/7 (Hydra vulgaris (Hydra magnipapillata), UniProt A0A0A0MP61+A0A0A0MP73+A8DZR6). In words: Inhibition of HyNaC2/10/7 currents in Xenopus oocytes (TEVC). The class given is cell-based. As to conditions: HyNaC2/10/7. As for the experimental part: (§1) One of the hallmarks of DEG/ENaCs is the block by the diuretic amiloride.
(§2) Figure 10 Diminazene is a potent inhibitor of HyNaCs. A) Current trace illustrating the concentration-dependent inhibition of HyNaC2/9/7 by diminazene. Block by 100 μM amiloride was used to compare the affinity for diminazene and amiloride. […] Dashed lines represent the zero current level. B) Concentration-response curves showing the concentration-dependent inhibition of HyNaCs by diminazene. HyNaCs, Hydra Na^+ channels.
(§3) To study the biophysical properties of the new HyNaCs, cRNA of HyNaCs was synthesized in vitro (mMessage mMachine kit, Ambion, Austin, Texas, USA) and injected into Xenopus laevis oocytes of stage V and VI. […] Whole cell currents were recorded from defolliculated oocytes by two-electrode voltage-clamp (TEVC) using the amplifier TurboTec 03X (npi electronic GmbH, Tamm, Germany). […]
(§4) EC50 values for Hydra-RFamides I and II as well as IC50 values for diminazene were determined by fits to the Hill equation using IGOR Pro (version 6.06, WaveMetrics, Inc.). Reversal potentials were defined as the first recorded data point, where currents reversed signs from negative to positive. […]

A further assay has as its system Hydra magnipapillata. The assay is described as follows: Feeding reaction (tentacle curling induced by glutathione) of living Hydra. The class given is in vivo. The conditions noted are these: 10 μM GSH. As for the experimental part:
To find further evidence that amiloride inhibited the feeding reaction via inhibition of HyNaCs, we repeated these experiments with diminazene. Addition of glutathione (GSH; 10 μM final concentration) induced tentacle contractions and animals moved the tentacles to their mouth. After about two minutes, 100% of animals had their tentacles completely curled. […] Although the potency of diminazene in vivo was low, it should be taken into account that septate junctions provide a significant paracellular permeability barrier to the mesogleal space of Hydra. Moreover, it appears that diminazene requires active transport mechanisms for cellular uptake, probably strongly limiting its transcellular transport; amiloride in contrast is, in part, uncharged at neutral pH and has a significant membrane permeability.
Figure 11 Diminazene inhibits the feeding reaction of Hydra magnipapillata . Adult animals were held in plain medium or in medium containing 100, 200 or 300 μM diminazene (Dimi). The feeding response was induced by application of 10 μM glutathione (GSH). The number of animals showing complete tentacle curling was recorded every 30 seconds. *, P <0.05; **, P <0.01; ***, P <0.001.

The next assay has as its system HyNaCs. In words: Block of HyNaC currents (HyNaCs in general) in Xenopus oocytes. The class given is cell-based, Hydra magnipapillata. As to conditions: most HyNaCs. As for the experimental part: as §1, §2
To study the biophysical properties of the new HyNaCs, cRNA of HyNaCs was synthesized in vitro (mMessage mMachine kit, Ambion, Austin, Texas, USA) and injected into Xenopus laevis oocytes of stage V and VI. After injection, oocytes were incubated for one to two days at 19°C in oocyte Ringer’s solution 2 (OR-2), which contained (in mM): 82.5 NaCl, 2.5 KCl, 1.0 Na2HPO4, 1.0 MgCl2, 1.0 CaCl2, 5.0 HEPES, 0.5 g/l PVP, 1,000 U/l penicillin and 10 mg/l streptomycin, NaOH was used to adjust pH to 7.3. Whole cell currents were recorded from defolliculated oocytes by two-electrode voltage-clamp (TEVC) using the amplifier TurboTec 03X (npi electronic GmbH, Tamm, Germany). […]

In another assay the target is HyNaC2/3/6 (Hydra vulgaris (Hydra magnipapillata), UniProt A0A0A0MP54+A8DZR6+A8DZR7). In words: Inhibition of HyNaC2/3/6 currents in Xenopus oocytes (TEVC). The assay is classed as cell-based. The conditions noted are these: HyNaC2/3/6. As for the experimental part:
as §1, §2, §3, §4

Another assay has as its target HyNaC2/9/7 (Hydra vulgaris (Hydra magnipapillata), UniProt A0A0A0MP48+A0A0A0MP73+A8DZR6). In words: Inhibition of HyNaC2/9/7 currents in Xenopus oocytes (TEVC). The conditions noted are these: HyNaC2/9/7. The assay is classed as cell-based. As for the experimental part:
as §1, §2, §3, §4

The target in the next assay is HyNaC2/4/6 (Hydra vulgaris (Hydra magnipapillata), UniProt A0A0A0MP54+A8DZR6+A8DZR8). In words: Inhibition of HyNaC2/4/6 currents in Xenopus oocytes (TEVC). The class given is cell-based. As to conditions: HyNaC2/4/6. As for the experimental part:
as §1, §2, §3, §4

The next assay has as its target HyNaC2/3/5 (Hydra vulgaris (Hydra magnipapillata), UniProt A8DZR6+A8DZR7+D3UD58). In words: Inhibition of HyNaC2/3/5 currents in Xenopus oocytes (TEVC). The class given is cell-based. As to conditions: HyNaC2/3/5. As for the experimental part:
as §1, §2, §3, §4

The target in another assay is HyNaC2/3/7 (Hydra vulgaris (Hydra magnipapillata), UniProt A0A0A0MP73+A8DZR6+A8DZR7). In words: Inhibition of HyNaC2/3/7 currents in Xenopus oocytes (TEVC). The assay is classed as cell-based. As to conditions: HyNaC2/3/7. The method, then: as §1, §2, §3, §4
In a further assay the target is HyNaC2/11/5 (Hydra vulgaris (Hydra magnipapillata), UniProt A0A0A0MP55+A8DZR6+D3UD58). In words: Inhibition of HyNaC2/11/5 currents in Xenopus oocytes (TEVC). As to conditions: HyNaC2/11/5. The assay is classed as cell-based. As for the experimental part: as §1, §2, §3, §4
Assay [2] deals with HyNaC2/9/7 (Hydra magnipapillata).
Assay [3] deals with HyNaC2/11/5 (Hydra magnipapillata).
Assay [4] concerns the target HyNaC2/3/5 (Hydra magnipapillata).
For assay [5], the target named is HyNaC2/4/6 (Hydra magnipapillata).
In assay [6] the target is HyNaC2/3/6 (Hydra magnipapillata).
Assay [7] deals with HyNaC2/10/7 (Hydra magnipapillata).
The target of assay [8] is HyNaC2/3/7 (Hydra magnipapillata).

HyNaC2/4/6, sequence (A8DZR8 entry or part of it): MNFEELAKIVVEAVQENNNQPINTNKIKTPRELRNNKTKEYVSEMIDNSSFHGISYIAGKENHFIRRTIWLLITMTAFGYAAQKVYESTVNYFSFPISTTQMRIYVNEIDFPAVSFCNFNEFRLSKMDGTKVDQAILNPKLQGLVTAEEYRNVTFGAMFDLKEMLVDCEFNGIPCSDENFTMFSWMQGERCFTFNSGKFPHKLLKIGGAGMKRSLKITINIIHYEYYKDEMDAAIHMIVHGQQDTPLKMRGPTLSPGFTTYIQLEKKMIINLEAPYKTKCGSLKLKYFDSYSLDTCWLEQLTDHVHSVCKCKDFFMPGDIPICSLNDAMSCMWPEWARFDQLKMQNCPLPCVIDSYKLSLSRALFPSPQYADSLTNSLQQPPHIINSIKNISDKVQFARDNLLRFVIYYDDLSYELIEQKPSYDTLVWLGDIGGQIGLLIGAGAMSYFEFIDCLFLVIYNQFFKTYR
HyNaC2/4/6, sequence (A0A0A0MP54 entry or part of it): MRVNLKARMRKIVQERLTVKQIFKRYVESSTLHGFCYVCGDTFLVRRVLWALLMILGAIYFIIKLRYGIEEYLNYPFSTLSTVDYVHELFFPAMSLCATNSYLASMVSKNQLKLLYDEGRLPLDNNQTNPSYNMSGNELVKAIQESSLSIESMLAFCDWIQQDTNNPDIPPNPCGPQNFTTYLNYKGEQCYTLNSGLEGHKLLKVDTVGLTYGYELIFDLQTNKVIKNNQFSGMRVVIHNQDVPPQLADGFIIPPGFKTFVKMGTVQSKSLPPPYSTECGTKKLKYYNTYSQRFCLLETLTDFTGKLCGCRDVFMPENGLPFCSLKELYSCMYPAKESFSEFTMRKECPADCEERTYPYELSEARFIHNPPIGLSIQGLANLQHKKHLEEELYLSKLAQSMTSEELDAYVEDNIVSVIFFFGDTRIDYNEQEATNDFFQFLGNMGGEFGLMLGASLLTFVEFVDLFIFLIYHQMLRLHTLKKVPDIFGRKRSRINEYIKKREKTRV
HyNaC2/4/6, sequence (A8DZR6 entry or part of it): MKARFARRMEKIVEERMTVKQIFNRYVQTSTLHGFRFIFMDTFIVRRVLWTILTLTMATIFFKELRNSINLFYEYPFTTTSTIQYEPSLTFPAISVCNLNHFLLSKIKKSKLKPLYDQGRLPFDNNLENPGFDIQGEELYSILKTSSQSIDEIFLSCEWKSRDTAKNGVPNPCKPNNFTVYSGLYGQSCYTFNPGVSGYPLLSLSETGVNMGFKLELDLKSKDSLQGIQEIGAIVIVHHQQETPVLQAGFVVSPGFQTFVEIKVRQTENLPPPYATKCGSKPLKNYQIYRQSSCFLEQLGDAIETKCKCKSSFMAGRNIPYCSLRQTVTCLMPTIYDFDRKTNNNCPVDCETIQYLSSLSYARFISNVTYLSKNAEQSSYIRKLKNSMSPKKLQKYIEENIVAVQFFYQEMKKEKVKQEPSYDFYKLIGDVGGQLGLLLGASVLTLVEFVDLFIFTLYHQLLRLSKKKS
HyNaC2/3/5, sequence (A8DZR6 entry or part of it): as above
HyNaC2/3/5, sequence (D3UD58 entry or part of it): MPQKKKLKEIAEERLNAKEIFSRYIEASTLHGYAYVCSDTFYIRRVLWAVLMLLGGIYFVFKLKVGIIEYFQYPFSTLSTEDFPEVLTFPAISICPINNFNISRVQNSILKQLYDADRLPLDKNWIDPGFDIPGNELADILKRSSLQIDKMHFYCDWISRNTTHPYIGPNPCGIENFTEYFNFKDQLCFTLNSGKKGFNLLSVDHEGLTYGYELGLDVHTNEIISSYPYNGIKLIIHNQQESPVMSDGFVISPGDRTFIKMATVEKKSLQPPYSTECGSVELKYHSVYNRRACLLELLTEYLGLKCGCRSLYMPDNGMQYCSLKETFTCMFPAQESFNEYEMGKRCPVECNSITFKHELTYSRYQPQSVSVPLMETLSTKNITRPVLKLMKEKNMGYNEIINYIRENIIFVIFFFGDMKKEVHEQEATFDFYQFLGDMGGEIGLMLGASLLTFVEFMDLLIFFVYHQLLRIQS
HyNaC2/3/5, sequence (A8DZR7 entry or part of it): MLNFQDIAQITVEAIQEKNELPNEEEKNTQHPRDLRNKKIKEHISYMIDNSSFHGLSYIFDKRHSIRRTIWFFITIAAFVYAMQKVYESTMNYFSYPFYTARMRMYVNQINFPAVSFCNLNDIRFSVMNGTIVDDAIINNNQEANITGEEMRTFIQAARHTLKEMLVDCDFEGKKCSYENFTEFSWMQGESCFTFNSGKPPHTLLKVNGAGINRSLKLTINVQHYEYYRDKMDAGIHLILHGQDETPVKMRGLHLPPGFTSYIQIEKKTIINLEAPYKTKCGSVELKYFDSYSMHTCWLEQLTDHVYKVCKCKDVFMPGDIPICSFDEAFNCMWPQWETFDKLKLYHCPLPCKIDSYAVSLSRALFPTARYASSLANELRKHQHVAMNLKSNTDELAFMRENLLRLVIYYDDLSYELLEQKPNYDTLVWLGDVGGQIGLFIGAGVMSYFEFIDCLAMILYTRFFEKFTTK
HyNaC2/3/6, sequence (A0A0A0MP54 entry or part of it): as the sequence (A0A0A0MP54 entry or part of it) above
HyNaC2/3/6, sequence (A8DZR7 entry or part of it): as the sequence (A8DZR7 entry or part of it) above
HyNaC2/3/6, sequence (A8DZR6 entry or part of it): as the sequence (A8DZR6 entry or part of it) above

For Hydra-RFamide III, the “activation of functional HyNaC heterotrimers (current elicited)” value in assay [1] was “did not elicit a current”.

A word on the IC50: it is the point on the concentration scale where inhibition reaches its midpoint. As for `N=C(N)c1ccc(/N=N/Nc2ccc(C(=N)N)cc2)cc1` [diminazene], the IC50 at HyNaC2/10/7 stood at 5400 ± 1450 nM; on HyNaC2/3/6 it was 90 ± 20 nM; at HyNaC2/9/7, 1700 ± 580 nM; against HyNaC2/4/6, 50 ± 20 nM; on HyNaC2/3/5, 450 ± 90 nM; at HyNaC2/3/7, 160 ± 80 nM. This compound also showed an IC50 at HyNaC2/11/5 of 31400 ± 9400 nM. Further, the “tentacle curling (feeding reaction)” value in the assay with Hydra magnipapillata (100 μM diminazene in medium) was “slightly delayed”. In addition, the “initiation of tentacles movement (feeding reaction)” value in the assay with Hydra magnipapillata (200 μM diminazene in medium) was “more strongly and significantly (P ≤0.01) delayed”. Also, in the assay with Hydra magnipapillata (300 μM diminazene in medium), the feeding reaction entry is recorded as “strongly inhibited the feeding reaction”. In addition, in the assay with Hydra magnipapillata (300 μM diminazene in medium, after four minutes), the “animals with tentacles completely curled” value is recorded as 20%. For the same compound, the “block of HyNaC currents” value in the assay on HyNaCs (10 μM diminazene) is reported as “almost completely blocked”. The “potency relative to amiloride” value in the assay on HyNaCs (estimated) is given as more than 100 fold.

As to Hydra-RFamide II (peptide), the figures for the EC50 of current activation by Hydra-RFamide II (two-electrode voltage clamp, Xenopus oocytes injected with EGTA) in [2], in assay [3] and in assay [4] were 40 nM, 950 nM and 1610 nM, respectively. The current at the highest concentration of Hydra-RFamide II of the concentration-response series (two-electrode voltage clamp, EGTA-injected oocytes); concentrations and EC50 not given came out at 4.7 μA in assay [5], 9.2 μA in assay [6], 1.1 μA in assay [7] and 11.8 μA in assay [8].
